From patent EP4640686A1, “DEGRADER FOR DEGRADING BRD PROTEIN AND PHARMACEUTICAL COMPOSITION CONTAINING SAME” (Innocure Therapeutics, Inc., priority 2022, dated 2024)
Read-outs that look alike come from different tables or passages of the source.

Legend:
Assay type in all cases: cell-based
BRD4 = BRD4 (Homo sapiens, UniProt O60885); test: BRD4 protein degradation by western blotting in RPMI2650 cells (24 h treatment); parameters: To evaluate the resolution of PROTAC for BRD4 expressed in cells; endogenous in cells; host or cells: RPMI2650; conditions: RPM12650, read-out: BRD4 (DC50)
Protocol: (§1) The synthesized compounds were prepared with a 10 mM or 50 mM raw material solution dissolved in DMSO [dimethyl sulfoxide], and were diluted sequentially and treated. [RPMI2650] and [SNU2972] were cultivated under specific conditions.
(§2) To evaluate the resolution of PROTAC for BRD4 expressed in cells, cells were dispensed in a concentration of 5 X 10^5 cells/well in a 6-well plate, and the sample was treated for 24 hours. […] Protein expression was normalized based on the expression value of β or GAPDH, and protein expression in each sample was measured as % based on 100% of samples treated with 0.1% DMSO vehicle. Protein expression was quantified using Image J program. Change in protein expression volume by compound treatment (DC50: concentration of compounds where 50% protein expression inhibition is achieved) was calculated using the GraphicPad Prism 8.0 software.

RPMI2650 = test: Cancer cell antiproliferative activity / cell viability in RPMI2650 cells (72 h treatment)
Protocol: The human breast cancer cell line [MDA-MB-231] was cultured in RPMI medium with the addition of 10% fetal bovine serum, penicillin [100U/ml], and streptomycin [[…]]. The synthesized compounds were prepared with a 10 mM or 50 mM raw material solution dissolved in DMSO [dimethyl sulfoxide], and were diluted sequentially and treated. [RPMI2650] and [SNU2972] were cultivated under specific conditions.
To observe cell growth inhibition, cells were dispensed in a concentration of 5,000 cells/well in a 96-well plate, and samples prepared at various concentrations were treated for 72 hours. The IC50 value (the concentration of the compound achieving 50% cytostaticism) is the average value of the results of three independent measurements.

BRD4-NUT = molecular target: T1, BRD4-NUT (Homo sapiens, UniProt O60885+Q86Y26); test: BRD4-NUT protein degradation by western blotting in RPMI2650 cells (24 h treatment); conditions: RPM12650, read-out: BRD4-NUT (DC50)
T1 construct: endogenous in cells; host or cells: RPMI2650
Protocol: as §1, §2

[1] = Homo sapiens, RPMI-2650, 72 h, RPM12650, read-out: Cell Viatility (IC50)
[2] = Homo sapiens, RPMI-2650, RPM12650, read-out: Cell Viatility (IC50)

IC50 (RPMI2650; RPM12650, read-out: Cell Viatility (IC50)) [nM]	IC50 (RPMI2650; [1]) [nM]	Compound	DC50 (BRD4) [nM]	DC50 (BRD4-NUT) [nM]	IC50 (RPMI2650; [2]) [nM]
> 1000		CC[C@H]1c2nnc(C)n2-c2cnc(Nc3ccc(C(=O)NC4CCN(CCC5CCN(c6ccc(NC7CCC(=O)NC7=O)cc6F)CC5)CC4)cc3OC)nc2N1CC1CCCCC1 (stereo partly drawn) [ICT-0001564, 4-{[(4S)-5-(cyclohexylmethyl)-4-ethyl-1-methyl-4H,5H-[1,2,4]triazolo[4,3-f]pteridine-7-yl]amino}-N-{1-[2-(1-{4-[(2,6-dioxopiperidin-3-yl)amino]-2-fluorophenyl}piperidine-4-yl)ethyl]piperidine-4-yl}-3-methoxybenzamide]	< 100	> 1000	
	> 1000	CC[C@@H]1c2nnc(C)n2-c2cnc(Nc3ccc(C(=O)NC4CCN(c5ccc(NC6CCC(=O)NC6=O)cc5F)CC4)cc3OC)nc2N1CC1CCCCC1 (stereo partly drawn) [ICT-0001566, 4-{[(4R)-5-(cyclohexylmethyl)-4-ethyl-1-methyl-4H,5H-[1,2,4]triazolo[4,3-f]pteridine-7-yl]amino}-N-(1-{4-[(2,6-dioxopiperidine-3-yl)amino]-2-fluorophenyl}piperidine-4-yl)-3-methoxybenzamide]	< 100	< 100	
		CC[C@@H]1c2nnc(C)n2-c2cnc(Nc3ccc(C(=O)NC4CCN(c5ccc6c(=O)n(C7CCC(=O)NC7=O)nc(C)c6c5)CC4)cc3OC)nc2N1CC1CCCCC1 (stereo partly drawn) [ICT-0001567, 4-{[(4R)-5-(cyclohexylmethyl)-4-ethyl-1-methyl-4H,5H-[1,2,4]triazolo[4,3-f]pteridine-7-yl]amino}-N-{1-[2-(2,6-dioxopiperidine-3-yl)-4-methyl-1-oxo-1,2-dihydroptalazine-6-yl]piperidine-4-yl}-3-methoxybenzamide]	> 1000	> 1000	> 1000
		CC[C@@H]1c2nnc(C)n2-c2cnc(Nc3ccc(C(=O)NC4CCN(CCCN5CCN(c6ccc7c(=O)n(C8CCC(=O)NC8=O)nc(C)c7c6)CC5)CC4)cc3OC)nc2N1CC1CCCCC1 (stereo partly drawn) [ICT-0001568, 4-{[(4R)-5-(cyclohexylmethyl)-4-ethyl-1-methyl-4H,5H-[1,2,4]triazolo[4,3-f]phteridine-7-yl]amino}-N-[1-(3-{4-[2-(2,6-dioxopiperidin-3-yl)-4-methyl-1-oxo-1,2-dihydroptalazine-6-yl}piperazine-1-il}piperidine-4-yl]piperidine-4-yl]-3-methoxybenzamide]	< 100	> 1000	> 1000
	> 1000	CC[C@@H]1c2nnc(C)n2-c2cnc(Nc3ccc(C(=O)NC4CCN(Cc5ccc(NC6CCC(=O)NC6=O)cc5)CC4)cc3OC)nc2N1CC1CCCCC1 (stereo partly drawn) [ICT-0001569, 4-{[(4R)-5-(cyclohexylmethyl)-4-ethyl-1-methyl-4H,5H-[1,2,4]triazolo[4,3-f]pteridine-7-yl]amino}-N-[1-({4-[(2,6-dioxopiperidin-3-yl)amino]phenyl}methyl)piperidine-4-yl]-3-methoxybenzamide]	> 1000	> 1000	
	> 1000	CC[C@@H]1c2nnc(C)n2-c2cnc(Nc3ccc(C(=O)NC4CCN(CCOCCOc5ccc(NC6CCC(=O)NC6=O)cc5F)CC4)cc3OC)nc2N1CC1CCCCC1 (stereo partly drawn) [ICT-0001570, 4-{[(4R)-5-(cyclohexylmethyl)-4-ethyl-1-methyl-4H,5H-[1,2,4]triazolo[4,3-f]pteridine-7-yl]amino}-N-{1-[2-(2-{4-[(2,6-dioxopiperidin-3-yl)amino]-2-fluorophenoxy}ethoxy)ethyl]piperidine-4-yl}-3-methoxybenzamide]	> 1000	> 1000	
	> 1000	CC[C@@H]1c2nnc(C)n2-c2cnc(Nc3ccc(C(=O)NC4CCN(C(=O)CCCCN5CCN(c6ccc(NC7CCC(=O)NC7=O)cc6F)CC5)CC4)cc3OC)nc2N1CC1CCCCC1 (stereo partly drawn) [ICT-0001571, 4-{[(4R)-5-(cyclohexylmethyl)-4-ethyl-1-methyl-4H,5H-[1,2,4]triazolo[4,3-f]pteridine-7-yl]amino}-N-{1-[5-(4-{4-[(2,6-dioxopiperidin-3-yl)amino]-2-fluorophenyl}piperazine-1-yl)pentanoyl]piperidine-4-yl}-3-methoxybenzamide]	> 1000	> 1000	
	> 1000	CC[C@@H]1c2nnc(C)n2-c2cnc(Nc3ccc(C(=O)NC4CCN(CCCN5CCN(c6ccc(NC7CCC(=O)NC7=O)cc6F)CC5)CC4)cc3OC)nc2N1CC1CCCCC1 (stereo partly drawn) [ICT-0001572, 4-{[(4R)-5-(cyclohexylmethyl)-4-ethyl-1-methyl-4H,5H-[1,2,4]triazolo[4,3-f]pteridine-7-yl]amino}-N-{1-[3-(4-{4-[(2,6-dioxopiperidin-3-yl)amino]-2-fluorophenyl}piperazine-1-yl)propyl]piperidine-4-yl}-3-methoxybenzamide]	> 1000	> 1000	
		CC[C@@H]1c2nnc(C)n2-c2cnc(Nc3ccc(C(=O)N4CCN(c5ccc6c(=O)n(C7CCC(=O)NC7=O)nc(C)c6c5)CC4)cc3OC)nc2N1CC1CCCCC1 (stereo partly drawn) [ICT-0001576, 3-{6-[4-(4-{[(4R)-5-(cyclohexylmethyl)-4-ethyl-1-methyl-4H,5H-[1,2,4]triazolo[4,3-f]pteridine-7-yl]amino}-3-methoxybenzoyl)piperazine-1-yl]-4-methyl-1-oxo-1,2-dihydroptalazine-2-yl}piperidine-2,6-dione]	< 100	< 100	> 1000
		CC[C@@H]1c2nnc(C)n2-c2cnc(Nc3ccc(C(=O)N4CCN(c5ccc6c(=O)n(C7CCC(=O)NC7=O)ncc6c5)CC4)cc3OC)nc2N1CC1CCCCC1 (stereo partly drawn) [ICT-0001577]	> 1000	> 1000	> 1000
	100 to 1000	CC[C@@H]1c2nnc(C)n2-c2cnc(Nc3ccc(C(=O)NC4CCN(C(=O)CCN5CCN(c6ccc(NC7CCC(=O)NC7=O)cc6F)CC5)CC4)cc3OC)nc2N1CC1CCCCC1 (stereo partly drawn) [ICT-0001578, 4-{[(4R)-5-(cyclohexylmethyl)-4-ethyl-1-methyl-4H,5H-[1,2,4]triazolo[4,3-f]pteridine-7-yl]amino}-N-{1-[3-(4-{4-[(2,6-dioxopiperidin-3-yl)amino]-2-fluorophenyl}piperazine-1-yl)propanoyl]piperidine-4-yl}-3-methoxybenzamide]	> 1000	> 1000	
		CC[C@@H]1c2nnc(C)n2-c2cnc(Nc3ccc(C(=O)N4CCN(CCNc5cccc6c(C)nn(C7CCC(=O)NC7=O)c(=O)c56)CC4)cc3OC)nc2N1CC1CCCCC1 (stereo partly drawn) [ICT-0001583, 3-(8-((2-(4-(4-(((R)-5-(cyclohexylmethyl)-4-ethyl-1-methyl-4,5-dihydro-[1,2,4]triazolo[4,3-f]pteridine-7-yl)amino)3-methoxybenzoyl)piperazine-1-yl)ethyl)amino)4-methyl-1-oxopthalazine-2(1H)-yl)piperidine-2,6-dione]	< 100	< 100	> 1000
		CC[C@@H]1c2nnc(C)n2-c2cnc(Nc3ccc(C(=O)N4CCN(c5cccc6c(C)nn(C7CCC(=O)NC7=O)c(=O)c56)CC4)cc3OC)nc2N1CC1CCCCC1 (stereo partly drawn) [ICT-0001584, 3-(8-(4-(4-(((R)-5-(cyclohexylmethyl)-4-ethyl-1-methyl-4,5-dihydro-[1,2,4]triazolo[4,3-f]pteridine-7-yl)amino)-3-methoxybenzoyl)piperazine-1-yl)-4-methyl-1-oxopthalazine-2(1H)-yl)piperidine-2,6-dione]	< 100	< 100	< 100
		CC[C@@H]1c2nnc(C)n2-c2cnc(Nc3ccc(C(=O)NC4CCN(C(=O)C5CCN(c6ccc7c(C)nn(C8CCC(=O)NC8=O)c(=O)c7c6)CC5)CC4)cc3OC)nc2N1CC1CCCCC1 (stereo partly drawn) [ICT-0001592]	< 100	< 100	< 100
		CC[C@@H]1c2nnc(C)n2-c2cnc(Nc3ccc(C(=O)N4CCN(CCNc5ccc6c(=O)n(C7CCC(=O)NC7=O)nc(C)c6c5)CC4)cc3OC)nc2N1CC1CCCCC1 (stereo partly drawn) [ICT-0001599, 3-(6-((2-(4-(4-(((R)-5-(cyclohexylmethyl)-4-ethyl-1-methyl-4,5-dihydro-[1,2,4]triazolo[4,3-f]pteridine-7-yl)amino)3-methoxybenzoyl)piperazine-1-yl)ethyl)amino)4-methyl-1-oxopthalazine-2(1H)-yl)piperidine-2,6-dione]	< 100	< 100	> 1000
		CC[C@@H]1c2nnc(C)n2-c2cnc(Nc3ccc(C(=O)N4CCN(CCNc5ccc6c(C)nn(C7CCC(=O)NC7=O)c(=O)c6c5)CC4)cc3OC)nc2N1CC1CCCCC1 (stereo partly drawn) [ICT-0001600, 3-(7-((2-(4-(4-(((R)-5-(cyclohexylmethyl)-4-ethyl-1-methyl-4,5-dihydro-[1,2,4]triazolo[4,3-f]pteridine-7-yl)amino)3-methoxybenzoyl)piperazine-1-yl)ethyl)amino)4-methyl-1-oxopthalazine-2(1H)-yl)piperidine-2,6-dione]	< 100	< 100	< 100
